Source: the supplement of paper PMC10307832

How the values were obtained:
Assay in all cases: relative viability (nuclei count vs DMSO), 5 days (fraction); higher = more cells survive
EPLC-272H = system: EPLC-272H
Method in brief: (§1)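 Relative viability equals treated-well nuclei counts divided by vehicle-well nuclei counts. Counts came from 4× images of lung cancer cell lines grown in 1536-well plates for 5 days after pin-tool dosing on the day after seeding. Dosing used one drug alone or a fixed anchor-drug dose plus five library-drug doses (not always all listed) in √10 steps, and values are medians of duplicate plates.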

H3255 = system: H3255
Method in brief: as §1

HARA = system: HARA
Method in brief: as §1

LC-2-ad = system: LC-2-ad
Method in brief: as §1

LOU-NH91 = system: LOU-NH91
Method in brief: as §1

NCI-H1650 = system: NCI-H1650
Method in brief: as §1

NCI-H1651 = system: NCI-H1651
Method in brief: as §1

NCI-H1975 = system: NCI-H1975
Method in brief: as §1

NCI-H2009 = system: NCI-H2009
Method in brief: as §1

NCI-H2023 = system: NCI-H2023
Method in brief: as §1

NCI-H2085 = system: NCI-H2085
Method in brief: as §1

NCI-H2087 = system: NCI-H2087
Method in brief: as §1

NCI-H2170 = system: NCI-H2170
Method in brief: as §1

NCI-H2228 = system: NCI-H2228
Method in brief: as §1

NCI-H23 = system: NCI-H23
Method in brief: as §1

NCI-H441 = system: NCI-H441
Method in brief: as §1

NCI-H650 = system: NCI-H650
Method in brief: as §1

NCI-H727 = system: NCI-H727
Method in brief: as §1

NCI-H838 = system: NCI-H838
Method in brief: as §1

PC-3 [JPC-3] = system: PC-3 [JPC-3]
Method in brief: as §1

SW 1573 = system: SW 1573
Method in brief: as §1

SW 900 = system: SW 900
Method in brief: as §1

UMC-11 = system: UMC-11
Method in brief: as §1

For `Cc1csc(=NC2CCCCC2)n1/N=C/c1ccc(O)c(O)c1O` [MIM1] + COc1cc2c(Oc3ccc(NC(=O)C4(C(=O)Nc5ccc(F)cc5)CC4)cc3F)ccnc2cc1OCCCN1CCOCC1 [Foretinib] (partner 0.25 µM), the relative viability (EPLC-272H; first compound 0.2 µM) was 0.779, the relative viability (EPLC-272H; first compound 0.6325 µM) was 0.724 and the relative viability (EPLC-272H; first compound 2 µM) was 0.622. The relative viability (EPLC-272H; first compound 6.325 µM) was 0.159, the relative viability (EPLC-272H; first compound 20 µM) was 0.12 and the relative viability (H3255; first compound 0.2 µM) was 0.945. The relative viability (H3255; first compound 0.6325 µM) was 0.715, the relative viability (H3255; first compound 2 µM) was 0.743 and the relative viability (H3255; first compound 6.325 µM) was 0.724. It also gave a relative viability (H3255; first compound 20 µM) of 0.307, a relative viability (HARA; first compound 0.2 µM) of 0.954 and a relative viability (HARA; first compound 2 µM) of 0.991. The relative viability (HARA; first compound 6.325 µM) was 0.868, the relative viability (HARA; first compound 20 µM) was 0.131 and the relative viability (LC-2-ad; first compound 0.2 µM) was 0.896. For the same compound, the relative viability (LC-2-ad; first compound 0.6325 µM) was 0.783, the relative viability (LC-2-ad; first compound 2 µM) was 0.745 and the relative viability (LC-2-ad; first compound 6.325 µM) was 0.631. The relative viability (LC-2-ad; first compound 20 µM) was 0.159, the relative viability (LOU-NH91; first compound 0.2 µM) was 0.9 and the relative viability (LOU-NH91; first compound 0.6325 µM) was 0.965. For the same compound, the relative viability (LOU-NH91; first compound 2 µM) was 0.833, the relative viability (LOU-NH91; first compound 6.325 µM) was 0.807 and the relative viability (LOU-NH91; first compound 20 µM) was 0.39. It also gave a relative viability (NCI-H1650; first compound 0.2 µM) of 1.16, a relative viability (NCI-H1650; first compound 0.6325 µM) of 1.12 and a relative viability (NCI-H1650; first compound 2 µM) of 0.832. For the same compound, the relative viability (NCI-H1650; first compound 6.325 µM) was 0.265, the relative viability (NCI-H1650; first compound 20 µM) was 0.142 and the relative viability (NCI-H1651; first compound 0.2 µM) was 0.722. It also gave a relative viability (NCI-H1651; first compound 0.6325 µM) of 0.741, a relative viability (NCI-H1651; first compound 2 µM) of 0.824 and a relative viability (NCI-H1651; first compound 6.325 µM) of 0.648. For the same compound, the relative viability (NCI-H1651; first compound 20 µM) was 0.652, the relative viability (NCI-H1975; first compound 0.2 µM) was 0.905 and the relative viability (NCI-H1975; first compound 0.6325 µM) was 0.96. For the same compound, the relative viability (NCI-H1975; first compound 2 µM) was 0.837, the relative viability (NCI-H1975; first compound 6.325 µM) was 0.493 and the relative viability (NCI-H1975; first compound 20 µM) was 0.316. It also gave a relative viability (NCI-H2009; first compound 0.2 µM) of 1.19, a relative viability (NCI-H2009; first compound 0.6325 µM) of 1.25 and a relative viability (NCI-H2009; first compound 2 µM) of 1.27. It also gave a relative viability (NCI-H2009; first compound 6.325 µM) of 1.09, a relative viability (NCI-H2009; first compound 20 µM) of 0.566 and a relative viability (NCI-H2023; first compound 0.2 µM) of 0.691. For the same compound, the relative viability (NCI-H2023; first compound 0.6325 µM) was 0.941, the relative viability (NCI-H2023; first compound 2 µM) was 0.7 and the relative viability (NCI-H2023; first compound 6.325 µM) was 0.599. For the same compound, the relative viability (NCI-H2023; first compound 20 µM) was 0.453, the relative viability (NCI-H2085; first compound 0.2 µM) was 0.895 and the relative viability (NCI-H2085; first compound 0.6325 µM) was 1.11. The relative viability (NCI-H2085; first compound 2 µM) was 1.13, the relative viability (NCI-H2085; first compound 6.325 µM) was 0.935 and the relative viability (NCI-H2085; first compound 20 µM) was 0.843. For the same compound, the relative viability (NCI-H2087; first compound 0.2 µM) was 1.04, the relative viability (NCI-H2087; first compound 0.6325 µM) was 1.31 and the relative viability (NCI-H2087; first compound 2 µM) was 1.18. For the same compound, the relative viability (NCI-H2087; first compound 6.325 µM) was 0.813, the relative viability (NCI-H2087; first compound 20 µM) was 0.847 and the relative viability (NCI-H2170; first compound 0.2 µM) was 0.979. For the same compound, the relative viability (NCI-H2170; first compound 0.6325 µM) was 1.01, the relative viability (NCI-H2170; first compound 2 µM) was 0.824 and the relative viability (NCI-H2170; first compound 6.325 µM) was 0.77. It also gave a relative viability (NCI-H2170; first compound 20 µM) of 0.295, a relative viability (NCI-H2228; first compound 0.2 µM) of 1.06 and a relative viability (NCI-H2228; first compound 0.6325 µM) of 0.951. It also gave a relative viability (NCI-H2228; first compound 2 µM) of 0.853, a relative viability (NCI-H2228; first compound 6.325 µM) of 0.583 and a relative viability (NCI-H2228; first compound 20 µM) of 0.247. It also gave a relative viability (NCI-H23; first compound 0.2 µM) of 1.07, a relative viability (NCI-H23; first compound 2 µM) of 0.791 and a relative viability (NCI-H23; first compound 6.325 µM) of 0.812. The relative viability (NCI-H23; first compound 20 µM) was 0.263, the relative viability (NCI-H441; first compound 0.2 µM) was 1.17 and the relative viability (NCI-H441; first compound 2 µM) was 1.01. For the same compound, the relative viability (NCI-H441; first compound 6.325 µM) was 0.617, the relative viability (NCI-H441; first compound 20 µM) was 0.256 and the relative viability (NCI-H650; first compound 0.2 µM) was 1.05. For the same compound, the relative viability (NCI-H650; first compound 0.6325 µM) was 1.05, the relative viability (NCI-H650; first compound 2 µM) was 1.02 and the relative viability (NCI-H650; first compound 6.325 µM) was 0.924. The relative viability (NCI-H650; first compound 20 µM) was 0.412, the relative viability (NCI-H727; first compound 0.2 µM) was 0.948 and the relative viability (NCI-H727; first compound 0.6325 µM) was 0.883. For the same compound, the relative viability (NCI-H727; first compound 2 µM) was 0.732, the relative viability (NCI-H727; first compound 6.325 µM) was 0.968 and the relative viability (NCI-H727; first compound 20 µM) was 0.439. For the same compound, the relative viability (NCI-H838; first compound 0.2 µM) was 1.01, the relative viability (NCI-H838; first compound 0.6325 µM) was 1.01 and the relative viability (NCI-H838; first compound 2 µM) was 0.761. For the same compound, the relative viability (NCI-H838; first compound 6.325 µM) was 0.853, the relative viability (NCI-H838; first compound 20 µM) was 0.657 and the relative viability (PC-3 [JPC-3]; first compound 0.2 µM) was 1.01. The relative viability (PC-3 [JPC-3]; first compound 0.6325 µM) was 1.05, the relative viability (PC-3 [JPC-3]; first compound 2 µM) was 1.01 and the relative viability (PC-3 [JPC-3]; first compound 6.325 µM) was 0.763. For the same compound, the relative viability (PC-3 [JPC-3]; first compound 20 µM) was 0.531, the relative viability (SW 1573; first compound 0.2 µM) was 1.04 and the relative viability (SW 1573; first compound 0.6325 µM) was 0.963. The relative viability (SW 1573; first compound 2 µM) was 0.809, the relative viability (SW 1573; first compound 6.325 µM) was 0.871 and the relative viability (SW 1573; first compound 20 µM) was 0.539. For the same compound, the relative viability (SW 900; first compound 0.2 µM) was 1.17, the relative viability (SW 900; first compound 0.6325 µM) was 0.864 and the relative viability (SW 900; first compound 2 µM) was 0.854. The relative viability (SW 900; first compound 6.325 µM) was 0.917, the relative viability (SW 900; first compound 20 µM) was 0.443 and the relative viability (UMC-11; first compound 0.2 µM) was 1.07. For the same compound, the relative viability (UMC-11; first compound 2 µM) was 1.2, the relative viability (UMC-11; first compound 6.325 µM) was 0.703 and the relative viability (UMC-11; first compound 20 µM) was 0.335.
